From US20100075907A1, “NEUROMEDIN U RECEPTOR AGONISTS AND USES THEREOF” (priority 2006, published 2010)
“Also recorded” adds a separate entry of the source. Blank lines part the entries; values can stand above or below the substance they belong to. Non-standard residues stand in square brackets, D forms with d. (PEG)2 40 kDa = branched PEG of 40 kDa linked via the Cys side-chain thiol (code C2 = Cys(PEG)2 40 kDa)

Columns and labels:
[1] = tested on: diet-induced obese mice; assay: Feeding study in diet-induced obese mice (food intake, body weight); type: in vivo; details: for % Food intake (FI) reductions Day 1: Day 1, based on vehicle responses; for % Food intake (FI) reductions Day 2: Day 2, based on vehicle responses; for % Food intake (FI) reductions Day 3: Day 3, based on vehicle responses; for body weight / duration of reductions in food intake: single acute subcutaneous administration; for anorectic effect: acute administration
Excerpt: NMUR1 knockout (Nmur1−/−) mice were generated using standard homologous recombination techniques. Nmur1 mice were subsequently transferred to Taconic Farms where they were either maintained on a 75% C57BL/6×25% 129S6/SvEv mixed genetic background or backcrossed six generations to C57BL/6. NMUR2 knockout (Nmur2−/−) mice were licensed from Deltagen Inc., San Mateo, Calif. and subsequently transferred to Taconic Farms where they were either maintained on a 75% C57BL/6×25% 129/OlaHsd mixed genetic background or backcrossed for seven generations to C57BL/6. NMUR1 and NMUR2 double knockout (Nmur1&2−/−) mice were generated by crossing N6 Nmur1−/− mice to N7 Nmur2−/− mice. Mice were individually housed in Tecniplast cages in a conventional SPF facility. Mice were initially maintained on a regular chow diet and then early in their life were switched to a high fat diet (D12492: 60% kcal from fat; Research Diets, Inc., New Brunswick, N.J.) with ad libitum access to water in a 12-hour light/12-hour dark cycle.
Ad libitum fed male diet-induced obese mice were weighed and dosed either i.p. or s.c. about 30 minutes prior to the onset of the dark phase of the light cycle and provided with a preweighed aliquot of high fat diet D12492 which was then weighed 2 hours and 18 hours (day 1), 42 hours (day 2), 66 hours (day 3), and 90 hours (day 4) after the onset of the initial dark phase. Mice were weighed at the 18, 42, 66 and 90 hour time points.

[2] = Pharmacokinetic analysis using the FLIPR bioassay; type: in vivo; details: mice, 10 mg/kg subcutaneously, compared with hNMU-25
Protocol: Neuromedin U receptor agonist NMU12 exposure levels in dosed animals were measured using the bioassay and compared with hNMU-25 exposure levels. Animals were dosed subcutaneously with 10 mg/kg NMU12 or hNMU-25 and plasma was collected at various time points post-dose. The bioassay was a FLIPR-based assay, which was performed essentially as described above with the following modifications. Sample preparation prior to the assay was performed on ice to minimize degradation of plasma samples. The assay was run with 4% plasma as the final concentration. A three-point titration was done with the dosed plasma and tested on human NMUR1-expressing cell lines using FLIPR. The response after sample addition was taken as the maximum fluorescence units minus the fluorescence immediately prior to stimulation for each well. In addition to a three-point titration of dosed plasma samples, a 16-point titration of the peptide (hNMU-25 or NMU12) was run in 4% plasma (naive plasma) to serve as the standard. The concentration of the peptide in plasma was calculated based on extrapolations from the appropriate standard using the GraphPad Prism software.

[3] = target: hNMUR2 (Homo sapiens, UniProt Q9GZQ4); assay: FLIPR calcium mobilization assay, human NMUR2; type: cell-based; parameters: expressed in transfected cells; host or cells: FLP-In CHO or HEK-293 FLP-In cells (pcDNA5); HEK-293/aeq17 lines (pcDNA3.1) were also made; details: human NMUR2
Sequence of hNMUR2 (Q9GZQ4 whole entry): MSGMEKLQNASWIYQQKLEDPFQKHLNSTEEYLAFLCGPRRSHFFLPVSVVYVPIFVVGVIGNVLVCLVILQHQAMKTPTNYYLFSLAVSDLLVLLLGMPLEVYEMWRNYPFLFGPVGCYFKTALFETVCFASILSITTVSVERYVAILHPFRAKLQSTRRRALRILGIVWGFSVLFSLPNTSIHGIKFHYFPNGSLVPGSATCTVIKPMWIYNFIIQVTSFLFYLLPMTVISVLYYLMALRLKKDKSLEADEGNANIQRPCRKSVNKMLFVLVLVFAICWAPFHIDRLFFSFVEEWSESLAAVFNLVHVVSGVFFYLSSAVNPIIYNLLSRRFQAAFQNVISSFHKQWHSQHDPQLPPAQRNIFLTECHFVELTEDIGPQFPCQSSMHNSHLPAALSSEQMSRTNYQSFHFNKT
Excerpt: (§1) Human, mouse or rat cDNAs encoding NMUR1 or NMUR2 (as described in Howard et al. Nature 406: 70-74 (2000) were subcloned in pcDNA5 (Invitrogen) and transfected into FLP-In CHO cells and HEK-293 FLP-In cells purchased from Invitrogen (Carlsbad, Calif.) using lipofectamine (Invitrogen). The Flp-In system allows integration and expression of a particular gene of interest at a specific genomic location utilizing the Flp recombinase from yeast. The transfected cells were selected by growth in medium containing 200 μg/mL hygromycin (Invitrogen). Populations were frozen at early passage numbers, and these stocks were used for further studies. Stable clones that expressed the mRNAs were identified functionally by FLIPR as well as by RT-PCR. […] Two different rodent NMUR1 cell lines were thus generated: one with the codon as predicted from the genomic databases and another cell line with an engineered methionine (ATG) as the start codon. Additionally, stable cell lines expressing the human receptors were generated in HEK-293/aeq17 cells which stably express the aequorin gene under the CMV promoter. The human NMUR2 cDNA was cloned into pcDNA3.1 and human NMUR1 was subcloned into pIRES-puro (Clontech, Mountain View, Calif.), after transfection cells were selected in media containing G418 and either hygromycin (NMUR2) or puromycin (NMUR1).
(§2) The NMU receptors signal primarily through Gαq/11 proteins; therefore calcium mobilization assays can be utilized for functional activity.
(§3) Stable cell lines expressing human and or rodent NMUR1 or human NMUR2 receptors were plated at a density of 12,000 cells per well overnight on poly-lysine coated 384-well black-walled plates. The following day, the media was removed from the plates and the cells were subsequently loaded with Fluo-3 (Molecular Probes), a calcium sensitive dye, diluted in FLIPR buffer (1× Hank's buffered saline containing 20 mM HEPES, 0.1% BSA, 2.5 mM probenecid (Sigma) and 1.6 mM TR40). All reagents are from Invitrogen unless otherwise noted. Peptide stocks were resuspended in DMSO at a stock concentration of 2 mM and diluted in FLIPR buffer on the day of the experiment to a 4 μM working stock solution.
(§4) After a 90 minute incubation at room-temperature, cell plates were loaded onto a FLIPR (Molecular Devices) to monitor cellular fluorescence (excitation=488 nm; emission=540 nm) before and after compound/peptide addition. Eight to twelve point dose responses were tested on NMUR-expressing cell lines using FLIPR with 1 μM peptide as the highest dose. The response after peptide addition was taken as the maximum fluorescence units minus the fluorescence immediately prior to stimulation for each well. EC50 values were calculated using GraphPad Prism (San Diego, Calif.) software.
(§5) In vitro responses of Neuromedin U receptor agonists (NMU1 to NMU25) in the FLIPR assay for human (Table 3), mouse (Table 4) and rat (Table 5) NMUR1 and NMUR2. EC50s are reported in nM values. Percent activity refers to the maximum response at 1 μM compared to the hNMU-25 response at the same concentration. NT=not tested.

[4] = target: T1, hNMUR1 (Homo sapiens, UniProt Q9HB89); assay: FLIPR calcium mobilization assay, human NMUR1; type: cell-based; parameters: expressed in transfected cells; host or cells: FLP-In CHO or HEK-293 FLP-In cells (pcDNA5); HEK-293/aeq17 lines (pIRES-puro) were also made; details: human NMUR1
T1 sequence (Q9HB89 1-426): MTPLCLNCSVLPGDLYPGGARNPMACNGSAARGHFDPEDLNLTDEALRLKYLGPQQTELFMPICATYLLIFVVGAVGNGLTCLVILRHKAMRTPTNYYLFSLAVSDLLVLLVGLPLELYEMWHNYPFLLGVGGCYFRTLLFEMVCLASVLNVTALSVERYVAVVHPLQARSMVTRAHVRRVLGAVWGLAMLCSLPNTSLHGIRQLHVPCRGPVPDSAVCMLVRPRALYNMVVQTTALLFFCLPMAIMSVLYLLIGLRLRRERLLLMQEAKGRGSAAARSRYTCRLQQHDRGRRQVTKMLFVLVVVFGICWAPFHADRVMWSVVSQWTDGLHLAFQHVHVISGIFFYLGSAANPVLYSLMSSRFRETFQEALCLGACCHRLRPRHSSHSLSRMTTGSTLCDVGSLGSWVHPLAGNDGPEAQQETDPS
Excerpt: as §1, §2, §3, §4, §5

Substance: P1-FRVDEEFQSPFASQSRGYFLFRPRN-CONH2 ({branched PEG 40 kDa}-FRVDEEFQSPFASQSRGYFLFRPRN-NH2) [NMU1, P1 = (PEG)240 kDa; branched PEG of 40 kDa linked at N-terminus of native human NMU]
half-life in human plasma: greater than three days
extension of serum half-life by PEGylation [1]: three days
Body weight (BW) change (in grams) {relative to vehicle} Day 1 ([1]; 10 mg/kg): −1.4 grams
% Food intake (FI) reductions Day 1 ([1]; 10 mg/kg): 57%
Body weight (BW) change (in grams) {relative to vehicle} Day 2 ([1]; 10 mg/kg): −1.7 grams
% Food intake (FI) reductions Day 2 ([1]; 10 mg/kg): 56%
Body weight (BW) change (in grams) {relative to vehicle} Day 3 ([1]; 10 mg/kg): −0.4 grams
% Food intake (FI) reductions Day 3 ([1]; 10 mg/kg): 22%
efficacy at reducing overnight food intake compared to hNMU-25 ([1]; acute subcutaneous administration): greater efficacy
body weight [1]: Significant reductions in body weight
duration of reductions in food intake [1]: three days post-dose

Substance: Ac-C3FRVDEEFQSPFASQSRGYFLFRPRN-CONH2 (Ac-CFRVDEEFQSPFASQSRGYFLFRPRN-NH2; not fully specified (residue 1); printed as Ac-C3FRVDEEFQSPFASQSRGYFLFRPRN-CONH2) [NMU10, C3 = cysteine linked to cholesterol via the side-chain thiol]
Body weight (BW) change (in grams) {relative to vehicle} Day 1 ([1]; 10 mg/kg): −1.2 grams
% Food intake (FI) reductions Day 1 ([1]; 10 mg/kg): 24%

Substance: Ac-C2FRVDEEFQSPFASQSRGYFLFRPRN-CONH2 [NMU12] (Ac-C((PEG)2 40 kDa)FRVDEEFQSPFASQSRGYFLFRPRN-NH2) [C2 = Cys(PEG)240 kDa from NOF Corporation (SUNBRIGHT GL2-400MA)]
half-life in human plasma: greater than three days
Body weight (BW) change (in grams) {relative to vehicle} Day 1 ([1]; 10 mg/kg): −1.8 grams
% Food intake (FI) reductions Day 1 ([1]; 10 mg/kg): 51%
Body weight (BW) change (in grams) {relative to vehicle} Day 2 ([1]; 10 mg/kg): −1.3 grams
% Food intake (FI) reductions Day 2 ([1]; 10 mg/kg): 50%
Body weight (BW) change (in grams) {relative to vehicle} Day 3 ([1]; 10 mg/kg): −0.2 grams
% Food intake (FI) reductions Day 3 ([1]; 10 mg/kg): 15%
duration of reductions in food intake and body weight ([1]; NMUR1 knockout animals): two days post dose
duration of reductions in food intake and body weight ([1]; NMUR2 knockout animals): only overnight effects
anorectic effect ([1]; NMUR1/NMUR2 double knockout animals): no effect was observed
anorectic effect ([1]; wild-type animals): highly efficacious
cumulative food intake reduction relative to the vehicle treated group ([1]; chronic administration QD, Q2D or Q3D): 12-27%
food intake ([1]; peripheral administration, Nmur1 knockout mice): able to reduce food intake
crossing the blood-brain barrier ([1]; peripheral administration, inferred from knockout mice): capable of crossing the blood-brain barrier; also recorded: able to cross the blood-brain barrier
body weight [1]: significant reduction
duration of reductions in food intake [1]: three days
metabolic stability in vivo (plasma exposure) [2]: greater metabolic stability in vivo

Substance: Ac-C2FRVDEEFQSPFASQSRGYFaWRPRN-CONH2 (Ac-C((PEG)2 40 kDa)FRVDEEFQSPFASQSRGYF[dA]WRPRN-NH2) [NMU14, C2 = Cys(PEG)240 kDa; a = D-Alanine]
Body weight (BW) change (in grams) {relative to vehicle} Day 1 ([1]; 50 mg/kg): −0.1 grams

Substance: Ac-C2-Ttds-FLFRPRN-CONH2 (Ac-CFLFRPRN-NH2; not fully specified (residue 1); printed as Ac-C2-Ttds-FLFRPRN-CONH2) [NMU16, C2 = Cys(PEG)240 kDa]
Body weight (BW) change (in grams) {relative to vehicle} Day 1 ([1]; 10 mg/kg): −0.3 grams
% Food intake (FI) reductions Day 1 ([1]; 10 mg/kg): 11%
Body weight (BW) change (in grams) {relative to vehicle} Day 1 ([1]; 30 mg/kg): −0.9 grams
% Food intake (FI) reductions Day 1 ([1]; 30 mg/kg): 25%

EC50 ([3]; FLIPR): 0.0361 µM
% Activity ([3]; maximum response at 1 μM compared to hNMU-25): 91.8%
EC50 ([4]; FLIPR): 0.0796 µM
% Activity ([4]; maximum response at 1 μM compared to hNMU-25 response at same concentration): 91.4%
Substance: Ac-C2GYFLFRPRN-CONH2 ({Ac-C(PEG 40 kDa)}-GYFLFRPRN-NH2) [NMU7, C2 = Cys(PEG)240 kDa]
Body weight (BW) change (in grams) {relative to vehicle} Day 1 ([1]; 10 mg/kg): −1.7 grams
% Food intake (FI) reductions Day 1 ([1]; 10 mg/kg): 44%

Substance: Ac-C2ASQSRGYFLFRPRN-CONH2 (Ac-C((PEG)2 40 kDa)ASQSRGYFLFRPRN-NH2) [NMU18, C2 = Cys(PEG)240 kDa]
extension of serum half-life by PEGylation [1]: two days
Body weight (BW) change (in grams) {relative to vehicle} Day 1 ([1]; 10 mg/kg): −2.6 grams
% Food intake (FI) reductions Day 1 ([1]; 10 mg/kg): 71%
Body weight (BW) change (in grams) {relative to vehicle} Day 2 ([1]; 10 mg/kg): −0.2 grams
% Food intake (FI) reductions Day 2 ([1]; 10 mg/kg): 40%
